Experimental data as given in article PMC9122897, “SHR1032, a novel STING agonist, stimulates anti-tumor immunity and directly induces AML apoptosis” (Scientific Reports, 2022).

What was measured:
[1] = test system: MC38 mouse syngeneic colorectal adenocarcinoma; assay: MC38 syngeneic tumor model; type: in vivo, C57BL/6 mouse
Procedure: Figure 3 Robust cytokine induction and antitumor effects in vivo. (a,b) C57BL/6 mice were inoculated with mouse MC38 colon cancer cells in the left flank. When tumor volumes were 100 mm^3, they received intratumoral (IT) dose of 100 µg of SHR1032 on day 1, 5, 8 and 12 or IT dose of 50 µg ADU-S100 on day 1, 5, and 8, or vehicle, respectively. (a) Tumor volume was measured at different time points. Results are shown as mean tumor volume ± sem. (n = 8 animals per group). (b) Mouse bodyweight was measured at different time points. (c–f) C57BL/6 mice were inoculated with mouse MC38 colon cancer cells in the left flank. When tumor volumes were 100 mm^3, they received one IT dose of 100 µg of SHR1032 or 50 µg ADU-S100, or vehicle. (c) IFNβ, (d) IL-6 and (e) TNFα from both tumor and plasma was measured by ELISA 4 h after. (f) SHR1032 compound concentration in tumors were measured.
(§1) Human and Cynomolgous PBMC’s were thawed and spun down in Lymphocyte media (ZENBIO) and resuspended in media to 1.5 x 10^6 cells/ml density. Mouse RAW 264.7 cells were detached from the flask and resuspended in media to 1.5 x 10^6 cells/ml density. Then, 100 µl of media containing the cells was added to each well of a 96-well plate containing compound in 50 µl of media. Plates were incubated for 5 h at 37 °C and supernatant was collected for ELISA analysis. Human and monkey IFN-β protein concentration was measured using human IFN-β Quantikine ELISA Kits (R&D Systems) per manufacture’s protocol. Mouse IFN-β was measured using mouse IFN-β Quantikine ELISA Kits (R&D Systems) per manufacture’s protocol. Mouse TNFα, IFN-β and IL-6 in the tumor lysates and plasma was measured by Quantikine ELISA Kits (R&D Systems) per manufacture’s protocol.
Female C57BL/6 mice, aged between 8 and 10 weeks old, were purchased from Charles River Lab. MC38 mouse colorectal cancer cells were resuspended as single cell solution in PBS at a concentration of 5 × 10^6 cells/ml. One hundred µl of cell suspension were implanted in the right flank of mice subcutaneously. Tumor size was measured by a caliper in three dimensions and its volume was then calculated according to the following formula: Tumor Volume (mm^3) = l * w * h * 0.5236, where l = length, w = width and h = height in mm for a tumor. When the average tumor volume reached around 100 mm^3, the mice were randomly assigned into three groups (n = 8) and each group of mice received one regimen. This day was assigned as day 0 for the study. […] Tumor volume and body weight were measured 3 times per week throughout the study. […] Cytokines and SHR1032 concentration in the plasma and tumor tissues were analyzed. […]

[2] = test system: mouse RAW164.7 macrophage cells; assay: Western blot of TBK1 phosphorylation; type: cell-based; details: 10 µM SHR1032 vs 40 µM ADU-S100
Procedure: Figure 2 SHR1032 specifically and potently activates STING signaling pathway. IRF luciferase reporter assays in (a) THP1-STING-R232, THP1-STING-H232, THP1-STING-HAQ, and THP1-STING-KO cells. Cells were stimulated for 24 h with the indicated STING compounds and assessed for luciferase activity. IFNβ production and activation of cGAS-STING signaling pathway in (b) human THP1-STING-R232, human PBMCs from a donor homozygous for the R232 variant, cynomolgus PBMC, and mouse RAW164.7 macrophage cells were treated with STING agonists for 5 h. IFNβ in media was quantified by human or mouse ELISA kits respectively. (c) THP1-STING-R232 cells and mouse RAW164.7 macrophage cells were stimulated with 40 µM of ADU-S100 or 10 µM of SHR1032 for the indicated time points. The amount of pTBK1, total TBK1, STING and α-tubulin was measured by western blotting.
THP1 reporter cells were treated for 24 h with a total of 100 k cells and 150 ul media in each well a 96-well plate. […] Luminescence signal was measured using Tecan infinite M1000. EC50 values were calculated using non-linear regression analysis of GraphPad Prism. Cell growth was monitored by CellTiter-Glo Luminescent Cell Viability Assay (Promega) per manufacture’s protocol. GI50 values were calculated using non-linear regression analysis of GraphPad Prism. […]

[3] = test system: MV4-11 cells; assay: IFNβ ELISA; type: cell-based, human; details: MV4-11, 5 hrs, compared to THP1 cells
Procedure: as §1
(§2) Figure S2. IFNβ measurement in MV4-11, MOLM-16 and THP1-STING-R232 cells treated with SHR1032 for 5 hrs.

[4] = test system: MOLM-16 cells; assay: IFNβ ELISA; type: cell-based, human; details: MOLM-16, 5 hrs, compared to THP1 cells
Procedure: as §1, §2

CCn1nc(C)cc1C(=O)Nc1nc2cc(C(N)=O)cc(OC)c2n1CCC[C@H]1COc2cc(C(N)=O)cc3nc(NC(=O)c4cc(C)nn4CC)n1c23 [SHR1032]
tumor growth inhibition ([1]; 100 µg intratumorally on day 1, 5, 8 and 12, compared to the control group): 78% | mouse pharmacokinetic properties ([1]; intratumoral, mouse): favorable mouse pharmacokinetic properties | IFNβ, IL-6 and TNFα induction in tumor and plasma ([1]; one IT dose of 100 µg, 4 h post dosing, ELISA): induced all the three cytokines in both tumors and plasma | TBK1 phosphorylation [2]: lower | IFNβ production [3]: produced IFNβ, but with a level much lower than that in THP1 cells | IFNβ production [4]: produced IFNβ, but with a level much lower than that in THP1 cells
